34 compounds from PubChem BioAssay AID493146 (Sanford-Burnham Center for Chemical Genomics, 2011) can be followed below.

The experiment addresses intestinal alkaline phosphatase (Alpi), Mus musculus. In words: murine Alpi activation by analogs – biochemical, luminescence, SAR follow-up (AID 493146). The following applies: purified mouse IAP, luminescent substrate.

Calls of active or inactive are those of the source. No rule for the calls is given here.

In general, EC50 refers to the concentration at which the effect is half-maximal. On to `N#Cc1c(SCC(=O)Nc2ccc(Cl)cc2Cl)sc2c(O)cc(=O)[nH]c12`, for which the EC50 is > 100 µM (inactive).
Turning to `CCN(C(=O)C(C)N1C(=O)/C(=C/c2ccco2)SC1=S)C1CCS(=O)(=O)C1` (centres undefined), the EC50 is > 100 µM (inactive).
In the case of `COc1ccccc1NC(=O)CCNS(=O)(=O)c1ccc2[nH]c(=O)oc2c1`, the EC50 was > 100 µM (inactive).
As for `CN(C(=O)CN1C(=O)/C(=C\c2ccco2)SC1=S)C1CCS(=O)(=O)C1` (centres undefined), the figure is > 100 µM (inactive); as for `N#Cc1cccc(NC(=O)CCNS(=O)(=O)c2ccc3[nH]c(=O)oc3c2)c1`, > 100 µM (inactive); as for `Cc1cc(NC(=O)CSc2sc3c(O)cc(=O)[nH]c3c2C#N)ccc1Br`, > 100 µM (inactive).
In the case of `O=C(CN1C(=O)/C(=C/c2ccco2)SC1=S)Nc1ccc(C(=O)O)c(O)c1`, the EC50 is > 100 µM (inactive).
As for `COc1ccc(NC(=O)CSc2sc3c(O)cc(=O)[nH]c3c2C#N)c(OC)c1`, the figure is > 100 µM (inactive).
Turning to `O=C(CCNS(=O)(=O)c1ccc2[nH]c(=O)oc2c1)Nc1cccc(-c2ccno2)c1`, the EC50 is > 100 µM (inactive).
Consider `Cc1ccc(NC(=O)CCNS(=O)(=O)c2ccc3[nH]c(=O)oc3c2)cc1`, for which the EC50 is > 100 µM (inactive).
Turning to `CCSc1nnc(NC(=O)CSc2sc3c(O)cc(=O)[nH]c3c2C#N)s1`, the EC50 is > 100 µM (inactive).
The value for `O=C(N/N=C/c1ccccc1F)c1cc(O)c(O)c(O)c1` was > 100 µM (inactive).
The value for `O=S(=O)(Nc1ncccn1)c1ccc(NC(=S)NCCC(c2ccccc2)c2ccccc2)cc1` was > 100 µM (inactive); that for `COC(=O)NNC(=O)c1cc(OC)c(OC)c(OC)c1` was > 100 µM (inactive).
As for `CC(C(=O)NCCc1ccc(O)c(O)c1)N1C(=O)/C(=C\c2ccco2)SC1=S` (centres undefined), the figure is > 100 µM (inactive); as for `O=C(N/N=C/c1ccc(F)cc1)c1cc(O)c(O)c(O)c1`, > 100 µM (inactive); as for `CC(C(=O)Nc1cccc(C(=O)O)c1)N1C(=O)/C(=C\c2ccco2)SC1=S` (centres undefined), > 100 µM (inactive).
Regarding `COc1ccc(N2CCN(C(=O)CN3C(=O)/C(=C\c4ccco4)SC3=S)CC2)cc1`, the EC50 is > 100 µM (inactive).
As for `O=C(CCN1C(=O)/C(=C/c2ccco2)SC1=S)Nc1ccc(C(=O)O)c(O)c1`, the figure is > 100 µM (inactive).
As to `N#Cc1c(SCC(=O)Nc2nncs2)sc2c(O)cc(=O)[nH]c12`, the EC50 is > 100 µM (inactive).
As for `Cc1ccc(NC(=O)CCNS(=O)(=O)c2ccc3[nH]c(=O)oc3c2)c(C)c1`, the figure is > 100 µM (inactive); as for `Cc1ccc(/C=N/NC(=O)c2cc(O)c(O)c(O)c2)cc1`, > 100 µM (inactive); as for `O=C(CCCN1C(=O)/C(=C/c2ccco2)SC1=S)Nc1ccccc1`, > 100 µM (inactive).
The value for `O=C(CCN1C(=O)/C(=C\c2ccco2)SC1=S)Nc1ccc(C(=O)O)c(O)c1` was > 100 µM (inactive); that for `O=C(CN1C(=O)/C(=C/c2ccco2)SC1=S)NC1CCS(=O)(=O)C1` (centres undefined) was > 100 µM (inactive); that for `COc1ccc(OC)c(NC(=O)CSc2sc3c(O)cc(=O)[nH]c3c2C#N)c1` was > 100 µM (inactive).
The value for `CSc1cccc(NC(=O)CCNS(=O)(=O)c2ccc3[nH]c(=O)oc3c2)c1` was > 100 µM (inactive).
For `CCOC(=O)N1CCN(S(=O)(=O)c2ccc3[nH]c(=O)oc3c2)CC1`, the EC50 was > 100 µM (inactive).
As for `O=C(O)CC(C(=O)O)N1C(=O)/C(=C/c2ccc(-c3nc4ccccc4s3)o2)SC1=S` (centres undefined), the figure is > 100 µM (inactive); as for `O=C(N/N=C/c1ccsc1)c1cc(O)c(O)c(O)c1`, > 100 µM (inactive).
As for `S=C(NCCC(c1ccccc1)c1ccccc1)Nc1ccc(Cl)cc1Cl`, the figure is 7.1 µM.
As for `CC(C(=O)N(C)C1CCS(=O)(=O)C1)N1C(=O)/C(=C/c2ccco2)SC1=S` (centres undefined), the figure is > 100 µM (inactive); as for `O=C(CCNS(=O)(=O)c1ccc2[nH]c(=O)oc2c1)Nc1ccccc1`, > 100 µM (inactive); as for `COc1ccc(OC)c(NC(=O)CCNS(=O)(=O)c2ccc3[nH]c(=O)oc3c2)c1`, > 100 µM (inactive).
